{
  "source": "patent US4282363A",
  "about": "“1-Nitro-2-(2-alkynylamino)-2-[(2-pyridylmethylthio)-ethylamino]ethylene derivatives” (Bristol-Myers Company, priority 1980, dated 1981)",
  "key": {"histamine H2 -receptor": {"molecular_target": "T1, histamine H2 -receptor (Cavia porcellus, UniProt P47747)", "T1 construct": "The spontaneously beating right atrium was dissected free from other tissues; from tissue; host or cells: isolated, spontaneously beating right atrium of male Hartley guinea pigs", "T1 sequence (P47747 whole entry)": "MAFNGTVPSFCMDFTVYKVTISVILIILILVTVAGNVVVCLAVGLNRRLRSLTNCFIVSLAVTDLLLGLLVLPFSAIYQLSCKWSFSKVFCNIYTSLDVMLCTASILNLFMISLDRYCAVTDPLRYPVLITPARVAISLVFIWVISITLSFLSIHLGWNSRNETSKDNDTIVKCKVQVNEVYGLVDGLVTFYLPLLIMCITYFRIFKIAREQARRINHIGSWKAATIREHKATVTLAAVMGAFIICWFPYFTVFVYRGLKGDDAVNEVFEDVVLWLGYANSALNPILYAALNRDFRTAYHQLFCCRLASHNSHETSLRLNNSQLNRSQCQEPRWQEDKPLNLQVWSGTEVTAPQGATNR", "assay": "Histamine H2-receptor antagonism, isolated guinea pig right atria assay (displacement of histamine concentration-response curve of atrial rate)", "design": "species or system guinea pig (male Hartley)", "settings": "for Histamine ED50 With 95% Confidence Limits (after test compound): histamine ED50 in presence of test compound 3 × 10^-5 M, 30 minute incubation; for Concentration-Response Curve Displacement Factor: test compound 3 × 10^-5 M, displacement of histamine curve to the right", "protocol": "Subsequent investigations by Hughes and Coret, Proc. Soc. […] Black et al., Agents and Actions, 3, 133 (1973) and Brimblecombe et al., Fed. […] The present comparative studies were carried out using a modification of the procedure reported by Reinhardt et al., Agents and Actions, 4, 217 (1974).\nMale Hartley strain guinea pigs (350-450 gm.) were sacrificed by a blow on the head. The heart was excised and placed in a Petri dish of oxygenated (95% O2, 5% CO2) modified Krebs solution (g./liter: NaCl 6.6, KCl 0.35, MgSO4.7H2 O 0.295, KH2 PO4 0.162, CaCl2 0.238, NaHCO3 2.1 and dextrose 2.09). The spontaneously beating right atrium was dissected free from other tissues and a silk thread (4-0) attached to each end. The atrium was suspended in a 20 ml. muscle chamber containing oxygenated modified Krebs solution maintained at 32° C. Atrial contractions were recorded isometrically be means of a Grass FT 0.03 force displacement transducer and recordings of contractile force and rate were made with Beckman RP Dynograph.\nA resting tension of 1 g. was applied to the atrium and it was allowed to equilibrate for 1 hour.\nConcentration-response curve displacement factors were calculated as follows: [formula] […] [formula]"}, "histamine H2 -receptors": {"system": "histamine H2 -receptors", "settings": "isolated right atria, cited from earlier work"}, "gastric secretion [1]": {"system": "gastric secretion", "settings": "animals; cited from earlier work"}, "gastric secretion [2]": {"system": "gastric secretion", "settings": "man, cited from earlier work"}, "peptic ulcer disease": {"system": "peptic ulcer disease", "settings": "cited from earlier work"}, "H2 -receptors": {"system": "H2 -receptors", "settings": "compared with other H2 antagonists; cited from earlier work"}, "[3]": {"settings": "clinical use; cited from earlier work"}, "[4]": {"settings": "200-300 mg. tablets, multi daily doses; cited from earlier work"}},
  "note": "Like-named read-outs stand apart in the source and are kept apart here.",
  "data": [
    {"smiles": "C#CCNC(=C[N+](=O)[O-])NCCSCc1ncccc1Cl", "note": "[BL-6075, 1-Nitro-2-(2-propynlamino)-2-{2-[(3-chloro-2-pyridyl)-methylthio]ethylamino}ethylene]", "values": [
      {"measurement": "Histamine ED50 With 95% Confidence Limits (after test compound)", "setting": "histamine H2 -receptor", "result": 20.97, "unit": "µg/mL"},
      {"measurement": "Concentration-Response Curve Displacement Factor", "setting": "histamine H2 -receptor", "result": 52.77}
    ]},
    {"smiles": "C#CCNC(=NCCSCc1ncccc1Cl)NC#N", "note": "[BL-6083, N-Cyano-N'-(2-propyn-1-yl)-N\"-{2-[(3-chloro-2-pyridyl)-methylthio]ethyl}guanidine]", "values": [
      {"measurement": "Histamine ED50 With 95% Confidence Limits (after test compound)", "setting": "histamine H2 -receptor", "result": 57.92, "unit": "µg/mL"},
      {"measurement": "Activity Ratio Relative to Cimetidine", "setting": "histamine H2 -receptor; ratio of displacement factors, cimetidine = 1.0, times more potent/active than cimetidine", "result": 8.19},
      {"measurement": "Concentration-Response Curve Displacement Factor", "setting": "histamine H2 -receptor", "result": 206.86}
    ]},
    {"smiles": "CNC(=S)NCCCCc1c[nH]cn1", "note": "[Burimamide]", "values": [
      {"measurement": "antagonism of H2-receptors", "setting": "histamine H2 -receptors", "result": "competitive antagonist"},
      {"measurement": "inhibition of gastric secretion", "setting": "gastric secretion [1]", "result": "inhibits gastric secretion"},
      {"measurement": "inhibition of gastric secretion", "setting": "gastric secretion [2]", "result": "inhibits gastric secretion"},
      {"measurement": "clinical effectiveness as H2 -receptor antagonist", "setting": "peptic ulcer disease; in vivo", "result": "first clinically effective H2 -receptor antagonist"}
    ]},
    {"smiles": "CNC(=NC#N)NCCSCc1[nH]cnc1C", "note": "[Cimetidine]", "values": [
      {"measurement": "H2 antagonist potency, comparison in words", "setting": "H2 -receptors", "result": "as effective an H2 antagonist as metiamide"},
      {"measurement": "toxicity (agranulocytosis)", "setting": "[3]", "result": "without producing agranulocytosis"},
      {"measurement": "Histamine ED50 With 95% Confidence Limits (after test compound)", "setting": "histamine H2 -receptor", "result": 4.80, "unit": "µg/mL"},
      {"measurement": "therapeutic effectiveness in peptic ulcer disease", "setting": "peptic ulcer disease; clinical evaluation", "result": "effective therapeutic agent in the treatment of peptic ulcer disease"},
      {"measurement": "half-life", "setting": "[4]", "result": "relatively short"}
    ]},
    {"smiles": "NCCc1c[nH]cn1", "note": "[Histamine, histamine]", "values": [
      {"measurement": "histamine concentration giving maximal response", "setting": "histamine H2 -receptor; final molar bath concentration, increase in atrial rate", "result": 30, "unit": "µM"},
      {"measurement": "effect on contractile rate", "setting": "histamine H2 -receptors; agonist", "result": "concentration-related increases in the contractile rate"}
    ]},
    {"smiles": "CNC(=S)NCCSCc1[nH]cnc1C", "note": "[Metiamide]", "values": [
      {"measurement": "H2 antagonist potency, comparison in words", "setting": "H2 -receptors", "result": "more potent than burimamide"},
      {"measurement": "toxicity (agranulocytosis)", "setting": "[3]", "result": "toxicity (agranulocytosis)"},
      {"measurement": "oral activity", "setting": "gastric secretion [2]; oral", "result": "orally active in man"}
    ]}
  ]
}
